Patent publication US20230064292A1, “METHODS OF TREATING PSMA-POSITIVE CANCER USING RADIONUCLIDE THERAPY” (priority 2020, published 2023)

How the values were obtained:
[1] = reported value; cited from earlier work
[2] = previous dosimetry studies in patients; cited from earlier work
tumor = conditions: cited from earlier work
[3] = 177Lu-PSMA-617 (7.4 GBq), Violet et al; cited from earlier work
[4] = system: PSMA-expressing PC3-PIP cells; experiment: Cellular uptake and internalization in PSMA-expressing PC3-PIP cells; assay type: cell-based
Text: The PSMA binding scaffold of PSMA binds irreversibly to the extracellular enzymatic domain of PSMA leading to rapid internalization by PSMA-expressing cancer cells. Tumor cell uptake of CTT1403 is ˜84% after just 2½ hours (FIG. 1), compared to less than 40% tumor cell uptake of ^177Lu-PSMA-617 (structure shown below), in PSMA-expressing PC3-PIP cells.
Given that 99% of cell bound CTT1403 is internalized, compared to just 15% of ^177Lu-PSMA-617, targeting by CTT1403 is expected to confer a significant therapeutic advantage. This greater uptake will allow treatment of smaller tumors for a longer time. Both irreversible binding and cellular internalization increases exposure of target tissue to the therapeutic agent. Greater accumulation in the target tissue will permit a lower efficacious dose and/or dosing frequency, thus reducing a patient's total clinical exposure to the radionuclide and improving the therapeutic index.

[5] = system: bone metastases in prostate cancer; conditions: palliative treatment of bone metastases in prostate cancer; cited from earlier work
[6] = 177Lu-PSMA-617 (7.4 GBq), Violet et al

Structure (SMILES)	half-life during the elimination phase [1]	initial half-life during the distribution phase [1]	potential dose limited organs [2]	Tumor (PSA < 50%), Dose Gy/GBq (tumor; [6])	Tumor (PSA < 50%), Mean Dose for (Gy) (tumor; [6])	Tumor (PSA ≥ 50%), Dose Gy/GBq (tumor; [6])	Tumor (PSA ≥ 50%), Mean Dose for (Gy) (tumor; [6])	tumor dose delivered that is associated with efficacy (reduction of circulating PSA) (tumor; over several cycles of therapy, published studies)	Kidney dose, Dose Gy/GBq [3]	Kidney dose, Mean Dose for (Gy) [3]	cell bound agent that is internalized ([4]; PSMA-expressing PC3-PIP cells)	Tumor cell uptake ([4]; after 2½ hours, PSMA-expressing PC3-PIP cells (FIG. 1))	average increase in survival [5]
O=C([O-])CN1CCN(CC(=O)[O-])CCN(CC(=O)NCC2CCC(C(=O)N[C@@H](Cc3ccc4ccccc4c3)C(=O)NCCCC[C@H](NC(=O)N[C@@H](CCC(=O)O)C(=O)O)C(=O)O)CC2)CCN(CC(=O)[O-])CC1.[177Lu+3] (stereo partly shown) [177Lu-PSMA-617]	10.8 ± 2.5 h	9.6 ± 5.4 min	salivary glands, kidneys and bone marrow	1.41 Gy/GBq	10.4 Gy	1.91 Gy/GBq	14.1 Gy	10-14 Gy	0.77 Gy/GBq	3.2 Gy	15%	less than 40%	
[Cl][223Ra][Cl] [Radium-223 chloride]													3-4 months
